According to the supplement of paper PMC8882468:
± gives the standard deviation of the averaged measurements.

What was measured:
Assay in all cases: CTG-3D luminescence at 96 h relative to day-0 seeding control (ratio to day 0); higher = more growth / less cytotoxicity; PDxO 3D drug screen (set 2), 96 h, CTG-3D normalised to day-0 seeding control.
HCI-011.E2 = tested on: HCI-011.E2 (organoid from an ER-positive breast cancer xenograft)
HCI-027 = tested on: HCI-027 (organoid from a triple-negative breast cancer xenograft)
HCI-002 = tested on: HCI-002 (organoid from a triple-negative breast cancer xenograft)
HCI-024 = tested on: HCI-024 (organoid from a breast cancer xenograft)
HCI-016 = tested on: HCI-016 (organoid from a triple-negative breast cancer xenograft)
HCI-005.E2 = tested on: HCI-005.E2 (organoid from a breast cancer xenograft with a HER2-positive history)

Nc1cc(C(F)(F)F)c(-c2cc(N3CCOCC3)nc(N3CCOCC3)n2)cn1 [buparlisib]
CTG-3D luminescence at 96 h
Conditions	12.5 pM	0.00025 µM	0.005 µM	0.1 µM	1 µM	10 µM	100 µM	625 fM
HCI-005.E2	1.84 ± 0.51	2.58 ± 0.53	2.64 ± 0.52	3.03 ± 1	1.45 ± 0.33	0.703 ± 0.086	0.594 ± 0.17	2.11 ± 0.7
HCI-011.E2	1.59 ± 0.17	1.75 ± 0.2	1.23 ± 0.11	1.38 ± 0.12	0.772 ± 0.013	0.191 ± 0.037	0.0881 ± 0.021	2.09 ± 0.41

CTG-3D luminescence at 96 h
Conditions	12.5 pM	0.00025 µM	0.005 µM	0.1 µM	1 µM	10 µM	100 µM	625 fM
HCI-002, days in culture: 127	2.59	2.87	2.94	3.16	2.14	0.496	0.461	2.98
HCI-002, days in culture: 155	5.8	5.75	6.05	5.13	3.11	0.466	0.411	4.41
HCI-002, days in culture: 168	3.25	3.53	3.92	2.96	2.25	0.309	0.241	4.04
HCI-011.E2, days in culture: 74	2.23	1.9	1.83	2.23	0.711	0.135	0.0559	2.32
HCI-016, days in culture: 305	2.89	2.88	2.23	4.87	1.89	0.444	0.606	5.12
HCI-016, days in culture: 327	1.19	1.21	1.32	2.02	1.16	0.497	0.431	1.23
HCI-016, days in culture: 341	2.17	1.78	2.04	2.44	1.48	0.65	0.484	2.59
HCI-016, days in culture: 397	1.77	2.39	1.33	2.74	1.41	0.71	0.511	2.25
HCI-024, days in culture: 202	0.94	1.8	0.863	1.75	0.649	0.995	0.453	1.69
HCI-024, days in culture: 231	0.962	1.28	0.905	1.7	0.751	0.659	0.357	1.23
HCI-024, days in culture: 254	1.89	0.93	0.779	1.12	1.08	0.637	0.959	2.39
HCI-027, days in culture: 145	1.54	1.52	1.25	1.43	0.692	0.328	0.299	2.3
HCI-027, days in culture: 158	2.38	2.8	2.6	2.57	0.949	0.818	0.172	2.61
HCI-027, days in culture: 164	1.85	1.65	1.59	2.16	0.625	0.478	0.612	1.57
HCI-027, days in culture: 176	4.08	3.24	0.833	1.54	0.26	0.384	0.144	2.31
HCI-027, days in culture: 186	1.86	1.61	2.44	1.65	0.528	0.223	0.169	2.21

CC(=O)O[C@@]12CO[C@@H]1C[C@H](O)[C@@]1(C)C(=O)[C@H](O)C3=C(C)[C@@H](OC(=O)[C@H](O)[C@@H](NC(=O)OC(C)(C)C)c4ccccc4)C[C@@](O)([C@@H](OC(=O)c4ccccc4)[C@H]21)C3(C)C [docetaxel]
CTG-3D luminescence at 96 h
Conditions	12.5 pM	0.00025 µM	0.005 µM	0.1 µM	1 µM	10 µM	100 µM	625 fM
HCI-005.E2	1.75 ± 0.43	1.98 ± 0.2	2.07 ± 0.31	2.26 ± 0.43	2.22 ± 0.82	1.75 ± 0.59	0.813 ± 0.056	2.5 ± 0.77
HCI-011.E2	1.19 ± 0.019	1.26 ± 0.21	1.02 ± 0.34	1.32 ± 0.19	1.05 ± 0.43	0.933 ± 0.14	0.118 ± 0.012	1.35 ± 0.16

CTG-3D luminescence at 96 h
Conditions	12.5 pM	0.00025 µM	0.005 µM	0.1 µM	1 µM	10 µM	100 µM	625 fM
HCI-002, days in culture: 127	0.447	0.957	0.452	0.428	0.356	0.422	0.298	0.543
HCI-002, days in culture: 155	1.9	0.578	0.357	0.536	0.394	0.397	0.378	2.27
HCI-002, days in culture: 168	3.45	3.13	0.43	0.281	0.324	0.319	0.115	4.39
HCI-011.E2, days in culture: 74	2.53	2.12	1.78	1.48	1.09	0.702	0.133	2.19
HCI-016, days in culture: 305	1.51	1.9	1.03	1.42	0.985	0.955	0.0636	1.77
HCI-016, days in culture: 327	0.628	0.252	0.393	0.838	0.432	0.497	0.0762	0.906
HCI-016, days in culture: 341	1.18	1.18	0.786	0.962	0.862	0.954	0.11	1.59
HCI-016, days in culture: 397	1.74	1.18	0.667	0.792	0.484	0.997	0.19	2.27
HCI-024, days in culture: 202	0.822	0.868	0.82	1.17	0.844	1.08	0.0987	0.654
HCI-024, days in culture: 231	0.86	0.987	0.75	0.873	1.08	1.06	0.0745	1.06
HCI-024, days in culture: 254	0.926	1.02	1.14	1.11	1.87	0.726	0.241	1.59
HCI-027, days in culture: 145	1.01	0.93	0.832	0.862	0.922	0.849	0.15	1.06
HCI-027, days in culture: 158	2.07	2.12	1.05	0.461	1.19	2.61	0.153	3.28
HCI-027, days in culture: 164	2.42	1.32	0.405	0.525	0.555	0.505	0.117	1.04
HCI-027, days in culture: 176	3.89	2.21	0.338	0.629	0.457	0.475	0.0832	2.73
HCI-027, days in culture: 186	1.45	1.25	0.855	0.693	0.469	0.451	0.0466	2.08

COc1cccc2c1C(=O)c1c(O)c3c(c(O)c1C2=O)C[C@@](O)(C(=O)CO)C[C@@H]3O[C@H]1C[C@H](N)[C@@H](O)[C@H](C)O1 [epirubicin]
CTG-3D luminescence at 96 h
Conditions	12.5 pM	0.00025 µM	0.005 µM	0.1 µM	1 µM	10 µM	100 µM	625 fM
HCI-005.E2	1.54 ± 0.3	1.65 ± 0.21	1.41 ± 0.32	0.977 ± 0.16	0.0317 ± 0.023	0.00772 ± 0.0044	-0.000128 ± 0.0015	1.98 ± 0.62
HCI-011.E2	1.49 ± 0.16	1.68 ± 0.12	1.53 ± 0.059	1.6 ± 0.4	0.861 ± 0.11	0.0857 ± 0.068	-0.000843 ± 0.00044	1.72 ± 0.42

CTG-3D luminescence at 96 h
Conditions	12.5 pM	0.00025 µM	0.005 µM	0.1 µM	1 µM	10 µM	100 µM	625 fM
HCI-002, days in culture: 127	2.39	2.93	2.65	2.23	0.362	0.034	-0.0164	3.16
HCI-002, days in culture: 155	5.42	5.17	4.75	2.9	0.251	0.0733	-0.011	4.45
HCI-002, days in culture: 168	3.2	3.41	3.79	1.24	0.0925	0.0935	-0.00758	3.54
HCI-011.E2, days in culture: 74	2.38	2.27	2.26	2.8	0.677	0.0499	-0.0143	2.23
HCI-016, days in culture: 305	2.91	3.05	3.17	1.79	0.0989	0.0325	-0.0142	3.33
HCI-016, days in culture: 327	0.93	0.767	0.985	1.49	0.0556	0.0566	-0.00792	1.16
HCI-016, days in culture: 341	2.05	1.72	2.11	0.986	0.0279	0.103	-0.00358	2.49
HCI-016, days in culture: 397	2	1.81	1.7	0.704	0.0199	0.108	-0.000737	3
HCI-024, days in culture: 202	1.44	1.41	0.402	0.943	0.189	0.201	0.0124	0.718
HCI-024, days in culture: 231	1.26	1.41	1.2	0.91	0.331	0.141	0.0266	1.79
HCI-024, days in culture: 254	1.76	2	0.967	0.838	0.196	0.165	0.0227	1.93
HCI-027, days in culture: 145	1.6	2.63	1.78	0.146	0.087	0.0692	-0.00274	1.49
HCI-027, days in culture: 158	3.01	2.81	2.46	0.544	0.0846	0.202	-0.00223	4.2
HCI-027, days in culture: 164	2.5	1.5	1.53	0.169	0.142	0.104	-0.00102	3.34
HCI-027, days in culture: 176	3.02	2.26	1.43	0.676	0.0317	0.0395	-0.000121	2.01
HCI-027, days in culture: 186	1.68	0.902	1.46	0.866	0.0439	0.0934	-0.00168	2.13
